{
  "source": "paper PMC3479146",
  "about": "“Flanking Residues Are Central to DO11.10 T Cell Hybridoma Stimulation by Ovalbumin 323–339” (PLoS ONE, 2012)",
  "key": {"[1]": {"system": "I-A^d", "details": "cited from earlier work", "description": "Table 1 Alternate registers within OVA 323–339. | column: Dissociation rate constants ^a / (k d, s^−1) || Peptide-MHC complex stability correlates broadly with immunogenicity, [21], as stable epitopes are more prevalent on the cell surface, and subsequently more likely to be recognized by responding T cells. Stability is commonly approximated as the dissociation rate of fluorescently labeled peptide from soluble MHC, although this approach can be complicated by highly overlapping registers. […] Supporting the thermodynamic stability of register one, a complex between the 323–339 peptide and I-A^d was cr ... || The HEL epitope consisting of residues 11 through 25 (HEL11-25) has been characterized as a weak MHC binder when presented by I-A^d, with a short half-life of approximately six hours that presumably results from a poorly accommodated arginine side chain in the P1 pocket. We compared the activities of wild type HEL11-25 to a variant in which the native P-4 to P-2 sequence was replaced with OVA-specific residues (QAV13-25) and a control in which these three residues were adjusted to GGS (GGS13-25). Since these changes lengthen the HEL11-25 peptide by a single amino acid, a control in whic ..."}, "[2]": {"system": "HEL11–25 responsive T cell hybridoma", "details": "synthetic HEL peptide; A20 + HEL11-25 hybridoma cells, 24 h; IL-2 ELISA; 3-parameter curve fits of aggregate data from at least two experiments", "quoted_text": "We compared the activities of wild type HEL11-25 to a variant in which the native P-4 to P-2 sequence was replaced with OVA-specific residues (QAV13-25) and a control in which these three residues were adjusted to GGS (GGS13-25). Since these changes lengthen the HEL11-25 peptide by a single amino acid, a control in which the HEL11-25 peptide was appended with an N-terminal glycine in position P-3 (G11-25) was also analyzed.\nEach well of a 96-well plate was seeded with 15,000 A20 cells, 15,000 T cell hydridoma cells and peptide, malE chimera protein or control peptide/protein per well in DMEM media without L-glutamine, except where noted. After a 24-hour incubation at 37°C, 5% CO2, supernatant was transferred to a new plate and stored at −80°C prior to IL-2 quantification assays. All peptide/protein doses were performed in triplicate wells and all experiments replicated at least twice.\nFor malE chimeras and control protein experiments, the relevant protein was thawed, concentrated using 30K molecular weight cut-off centrifugal filter units (Millipore UFC903024) and filter-sterilized. Proteins were then quantified via absorbance at 280 nm using a predicted extinction coefficient and molecular weight, diluted to equal concentrations, the concentration confirmed and serially diluted in 96-well plates. […] Proteins were pre-incubated for four hours with antigen presenting cells (A20 or 3A5) cells prior to a 24-hour incubation with T cell hybridomas. The IL-2 concentration in the supernatant was quantified using a matched pair ELISA quantified with an IL-2 standard as described (BD #555148). All experiments were performed at least twice, and all wells were measured in triplicate. Data was analyzed with Graphpad Prism 5 (La Jolla, CA)."}, "[3]": {"system": "DO11.10 T cell hybridoma", "test": "DO11.10 hybridoma IL-2 secretion with A20 antigen presenting cells and exogenous OVA peptide variants", "format": "cell-based, murine", "details": "synthetic peptide; 15,000 A20 + 15,000 DO11.10 cells per well, 24 h, 37°C, DMEM without L-glutamine; IL-2 by matched pair ELISA; 3-parameter curve fits of aggregate data from at least two experiments", "experimental": "Two previous reports described anchor substitutions to stabilize register four. […] To assess the relative success of these attempts, we synthesized both variants, along with an N-terminally truncated version of the Robertson peptide (328–339 EIVS; Table 2) to remove the effects of flanking residues which we hypothesized would promote register masking. To assess peptide activity, DO11.10 hybridomas were incubated for 24 hours with I-A^d+ A20 lymphoma cells in the presence of peptide, and supernatant was subsequently assessed for the presence IL-2 by a matched pair ELISA as a measure of T cell activation. […]\n(§1) Each well of a 96-well plate was seeded with 15,000 A20 cells, 15,000 T cell hydridoma cells and peptide, malE chimera protein or control peptide/protein per well in DMEM media without L-glutamine, except where noted. After a 24-hour incubation at 37°C, 5% CO2, supernatant was transferred to a new plate and stored at −80°C prior to IL-2 quantification assays. […]\nFor malE chimeras and control protein experiments, the relevant protein was thawed, concentrated using 30K molecular weight cut-off centrifugal filter units (Millipore UFC903024) and filter-sterilized. Proteins were then quantified via absorbance at 280 nm using a predicted extinction coefficient and molecular weight, diluted to equal concentrations, the concentration confirmed and serially diluted in 96-well plates. […]"}, "[4]": {"system": "DO11.10 T cell hybridoma", "test": "DO11.10 hybridoma IL-2 secretion with A20 cells and malE chimeras containing OVA epitope variants", "format": "cell-based, murine", "details": "malE chimera protein pre-incubated 4 h with A20 cells, then 24 h with DO11.10, IL-2 ELISA, 3-parameter curve fits of aggregate data from at least two experiments", "description": "Peptide sequences were introduced into the exposed loop in place of residues 133–140 as first described by Martineau et al., with a glycine-serine extension (GSGSG) appended to the N-terminus of inserted epitopes to increase solubility (Figure 3A, Table 4). The activity of the N-terminally truncated peptides in MBP (325–337, 327–337, 328–337) indicates a maintained preference for wild type flanking residues as was previously observed with synthetic peptides (Figure 3A, Table 4). […] The increased activity of variants retaining the wild type P-3 and P-4 residues of register four during intracellular processing again supports their direct role in mediating the peptide and MHC interaction. […]\nas §1\nFor malE chimeras and control protein experiments, the relevant protein was thawed, concentrated using 30K molecular weight cut-off centrifugal filter units (Millipore UFC903024) and filter-sterilized. […] The IL-2 concentration in the supernatant was quantified using a matched pair ELISA quantified with an IL-2 standard as described (BD #555148). […]"}, "[5]": {"details": "apparent first order dissociation constant of presumed isolated register from purified I-A^d, single exponential fits to monophasic dissociation data"}},
  "note": "“And” between values parts separate entries of the source, which are not always exact repeats. Equal entries are not always repeated. Where two headings read alike, the source gives them in different places. Marks after values point to notes of the source that are not given here. Where no end group is shown, it is not given here.",
  "data": [
    {"substance": "323–335 Q325A: literature OVA 323–335 peptide with alanine at position 325, used for register 1 dissociation", "values": [
      {"measurement": "Dissociation rate constants (k d, s^−1)", "setting": "[1]; [5]", "result": "2.3e-06", "unit": "s⁻¹"}
    ]},
    {"substance": "325–336: literature OVA 325–336 peptide used for register 3 dissociation", "values": [
      {"measurement": "Dissociation rate constants (k d, s^−1)", "setting": "[1]; [5]", "result": "2.6e-06", "unit": "s⁻¹"}
    ]},
    {"substance": "327–339 V327K: literature OVA 327–339 peptide with lysine at position 327, used for register 4 dissociation", "values": [
      {"measurement": "Dissociation rate constants (k d, s^−1)", "setting": "[1]; apparent first order dissociation constant from purified I-A^d, back-calculated from reported half-life of dissociation", "result": 0.0006, "unit": "s⁻¹"},
      {"measurement": "half-life of peptide dissociation from I-A^d", "setting": "[1]; register four core truncated at P-2, P-2 valine altered to lysine", "result": "around twenty"}
    ]},
    {"substance": "AMKRHGLDNYRGYSL [HEL11-25]", "values": [
      {"measurement": "Max response (ng/ml IL-2)", "setting": "[2]", "result": 0.7, "unit": "ng/ml IL-2"},
      {"measurement": "half-life when presented by I-A^d", "setting": "[1]", "result": "approximately six"}
    ]},
    {"substance": "GAMKRHGLDNYRGYSL [Peptide G11-25]", "values": [
      {"measurement": "Max response (ng/ml IL-2)", "setting": "[2]", "result": 0.7, "unit": "ng/ml IL-2"}
    ]},
    {"substance": "GGSKRHGLDNYRGYSL [GGS13-25]", "values": [
      {"measurement": "Max response (ng/ml IL-2)", "setting": "[2]", "result": "0.5 ^* ng/ml IL-2"}
    ]},
    {"substance": "ISQAVHAAHAEINEAGR [323–339]", "values": [
      {"measurement": "EC50", "setting": "[3]", "result": 1.6, "unit": "µM"}
    ]},
    {"substance": "MalE chimera 325–337: maltose binding protein with OVA 325–337 replacing malE residues 133–140", "values": [
      {"measurement": "Max response (ng/ml IL-2)", "setting": "[4]", "result": "1.1 ^* ng/ml IL-2"},
      {"measurement": "EC50", "setting": "[4]; read-out: EC50 (µM peptide)", "result": 18, "unit": "µM"}
    ]},
    {"substance": "QAVKRHGLDNYRGYSL [QAV13-25]", "values": [
      {"measurement": "Max response (ng/ml IL-2)", "setting": "[2]", "result": "1.5 ng/ml IL-2 and 1.5 ^* ng/ml IL-2"}
    ]}
  ]
}
